Results on twelve compounds are retold here after US7087641B2, “4β-1″-[(2″-substituted benzoyl) anilino]podophyllotoxin analogues useful as anticancer agents” (Council of Scientific & Industrial Research, priority 2002, dated 2006).

Molecules are shown by their SMILES.

The experiment has as its system tumor cell lines. Put plainly: Cytotoxicity (in vitro). The experiment is classed as cell-based. To be noted: range of GI50 values, cell lines not named. The text has this:
A program was initiated in the laboratory for the design and synthesis of new 4β-aryl amino substituted podophyllotoxin congeners with enhanced antitumour activity and/or activity against etoposide resistant tumor cell lines. In these efforts new 4β-1″-[{2″-benzoyl substituted}anilino] podophyllotoxin derivatives have been synthesized and evaluated for their cytotoxicity and anticancer potency. […] The synthesis of these compounds has been carried out as described in the scheme using podophyllotoxin obtained from the resin. The cytotoxicity of 4a–4p values have been illustrated in the Table 1.
For the compound `COc1cc([C@@H]2c3cc4c(cc3[C@@H](Nc3ccc(Cl)cc3C(=O)c3ccccc3F)[C@@H]3COC(=O)[C@H]23)OCO4)cc(OC)c1OC` [4i, 4β-1″-[2″-(2-Fluorobenzoyl)-4″-chloroanilino]-4-desoxypodophyllotoxin], the 50% growth inhibitory concentration (GI50) lay in the range of 140 to 300 nM.
The value for `COc1cc([C@@H]2c3cc4c(cc3[C@@H](Nc3ccccc3C(=O)c3ccccc3)[C@@H]3COC(=O)[C@H]23)OCO4)cc(OC)c1OC` [4a, 4β-1″-[2″-(Benzoyl)anilino]-4-desoxypodophyllotoxin] was 40 to 500 nM; that for `COc1cc(C2c3cc4c(cc3C(Nc3ccc(Cl)cc3C(=O)c3ccccc3Cl)C3COC(=O)C23)OCO4)cc(OC)c1O` (stereo not drawn) [4d, 4′-O-Demethyl-4β-1″-[2″-(2-Chlorobenzoyl)-4″-chloroanilino]-4-desoxypodo-phyllotoxin] was 100 to 240 nM.
In turn, `COc1cc([C@@H]2c3cc4c(cc3[C@@H](Nc3ccccc3C(=O)c3ccccc3)[C@@H]3COC(=O)[C@H]23)OCO4)cc(OC)c1O` [4b, 4′-O-Demethyl-4β-1″-[2″-(benzoyl)anilino]-4-desoxypodophyllotoxin] registered a GI50 of 15000 to 382000 nM.
`COc1cc([C@@H]2c3cc4c(cc3[C@@H](Nc3ccc([N+](=O)[O-])cc3C(=O)c3ccccc3)[C@@H]3COC(=O)[C@H]23)OCO4)cc(OC)c1O` [4f]: the GI50 fell in the range of 10 to 240 nM.
The value for `COc1cc(C2c3cc4c(cc3C(Nc3ccc(Cl)cc3C(=O)c3ccccc3)C3COC(=O)C23)OCO4)cc(OC)c1OC` (stereo not drawn) [4g, 4β-1″-[2″-(Benzoyl)-4″-chloroanilino]-4-desoxypodophyllotoxin] was 70 to 1100 nM.
In the case of `COc1cc([C@@H]2c3cc4c(cc3[C@@H](Nc3cccc(C(=O)c5ccccc5)c3)[C@@H]3COC(=O)[C@H]23)OCO4)cc(OC)c1O` [4l, 4′-O-Demethyl-4β-1″-[3″-(benzoyl)anilino]-4-desoxypodophyllotoxin] it was 2000 to 16000 nM; in that of `COc1cc([C@@H]2c3cc4c(cc3[C@@H](Nc3ccc(Cl)cc3C(=O)c3ccccc3Cl)[C@@H]3COC(=O)[C@H]23)OCO4)cc(OC)c1OC` [4c, 4β-1″-[2″-(2-Chlorobenzoyl)-4″-chloroanilino]-4-desoxypodophyllotoxin], 59 to 876 nM; in that of `COc1cc(C2c3cc4c(cc3C(Nc3ccc(Cl)cc3C(=O)c3ccccc3F)C3COC(=O)C23)OCO4)cc(OC)c1O` (stereo not drawn) [4j, 4′-O-Demethyl-4β-1″-[2″-(2-Fluorobenzoyl)-4″-chloroanilino]-4-desoxypodo-phyllotoxin], 4 to 100 nM.
The value for `COc1cc(C2c3cc4c(cc3C(Nc3ccc(Cl)cc3C(=O)c3ccccc3)C3COC(=O)C23)OCO4)cc(OC)c1O` (stereo not drawn) [4h] was 14000 to 270000 nM; that for `COc1cc(C2c3cc4c(cc3C(Nc3ccc(C(=O)c5ccccc5)cc3[N+](=O)[O-])C3COC(=O)C23)OCO4)cc(OC)c1O` (stereo not drawn) [4n] was 10 to 240 nM; that for `COc1cc([C@@H]2c3cc4c(cc3[C@@H](Nc3cccc(C(=O)c5ccccc5)c3)[C@@H]3COC(=O)[C@H]23)OCO4)cc(OC)c1OC` [4k, 4β-1″-[3″-(Benzoyl)anilino]-4-desoxypodophyllotoxin] was 100 to 1000 nM.

The GI50 is the concentration that inhibits growth by half. A lower GI50 goes with greater sensitivity of the cells.
